The series is described as follows: drug substance degradation on hot melt extrusion. It is filed as physicochemical. Particulars: hot melt extrusion at a temperature of 165° C. Here is the method:
Compound 1, Compound 2 and ritonavir were extruded using melt-extrusion. 31 g of copovidone, 3.5 g of vitamin E TPGS and 1.0 g of propylene glycol monolaurate were granulated for 2 minutes in a mill. After two hours, the mixture was blended with 5.09 g of ritonavir, 1.27 g of Compound 2, 7.64 g of Compound 1 and 0.5 g colloidal silica for 2 minutes in a blender and subsequently sieved over a 1.0 mm mesh sieve. The mixture was extruded on a Haake/Thermo Fisher extruder at 165° C. at a screw speed of 30 rpm. The extrudate thus prepared contained 15% Compound 1, 10% ritonavir, 2.5% Compound 2, 62% copovidone, 1% colloidal silica (areosil 200), 7% vitamin E TPGS, and 2% propylene glycol monolaurate.
The tablet was also tested for stability. […] The degradation of each drug substance after melt extrusion was within the specifications.

This note sets out measurements from patent US20150141351A1, “Solid Pharmaceutical Compositions” (AbbVie Deutschland GmbH & Co. KG, priority 2013, published 2015).

Regarding `CC(C)c1nc(CN(C)C(=O)N[C@H](C(=O)N[C@@H](Cc2ccccc2)C[C@H](O)[C@H](Cc2ccccc2)NC(=O)OCc2cncs2)C(C)C)cs1` [ritonavir], the “ritonavir degradation when co-extruded with Compound 1 and Compound 2” value is listed as “well within the acceptable levels”.
